Measured values reported in PubChem BioAssay AID330 (DTP/NCI, 2004).
Values joined by “and” are separate entries in the source; they are usually repeats but may differ in a detail not shown here. Identical values can stand only once. Inconclusive results and toxic doses are left out. How the source made its calls: active means survival T/C of 150% or more; inactive means T/C below 125% in these data.

Tested on: P388 leukemia ip, CD2F1 mice, survival T/C
Test: NCI In Vivo Anticancer Drug Screen. Data for tumor model P388 Leukemia (intraperitoneal) in CD2F1 (CDF1) mice
Details: endpoint: median survival time, higher = longer survival
Method in brief: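 Mice carrying the transplanted tumor received test compound or vehicle. Survival was recorded in each group, and the value is the treated-group measurement divided by that of the vehicle-treated control group.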

[1] = dose: 25.0 mg/kg/injection, schedule: Q01DX009 (ip), vehicle: other
[2] = dose: 50.0 mg/kg/injection, schedule: Q01DX009 (ip), vehicle: other
[3] = dose: 100.0 mg/kg/injection, schedule: Q01DX009 (ip), vehicle: other
[4] = dose: 200.0 mg/kg/injection, schedule: Q01DX009 (ip), vehicle: other
[5] = dose: 400.0 mg/kg/injection, schedule: Q01DX009 (ip), vehicle: other
[6] = dose: 12.5 mg/kg/injection, schedule: Q01DX009 (ip), vehicle: saline
[7] = dose: 25.0 mg/kg/injection, schedule: Q01DX009 (ip), vehicle: saline
[8] = dose: 50.0 mg/kg/injection, schedule: Q01DX009 (ip), vehicle: saline
[9] = dose: 100.0 mg/kg/injection, schedule: Q04DX002 (ip), vehicle: saline with Tween-80
[10] = dose: 200.0 mg/kg/injection, schedule: Q04DX002 (ip), vehicle: saline with Tween-80
[11] = dose: 100.0 mg/kg/injection, schedule: Q01DX009 (ip), vehicle: suspension in saline
[12] = dose: 100.0 mg/kg/injection, schedule: Q04DX003 (ip), vehicle: saline
[13] = dose: 200.0 mg/kg/injection, schedule: Q04DX003 (ip), vehicle: saline
[14] = dose: 50.0 mg/kg/injection, schedule: Q01DX009 (ip), vehicle: saline with Tween-80
[15] = dose: 100.0 mg/kg/injection, schedule: Q01DX009 (ip), vehicle: saline with Tween-80
[16] = dose: 200.0 mg/kg/injection, schedule: Q01DX009 (ip), vehicle: saline with Tween-80
[17] = dose: 50.0 mg/kg/injection, schedule: Q01DX005 (ip), vehicle: Klucel (hydroxypropylcellulose) (HPC)
[18] = dose: 100.0 mg/kg/injection, schedule: Q01DX005 (ip), vehicle: Klucel (hydroxypropylcellulose) (HPC)
[19] = dose: 200.0 mg/kg/injection, schedule: Q01DX005 (ip), vehicle: Klucel (hydroxypropylcellulose) (HPC)
[20] = dose: 100.0 mg/kg/injection, schedule: Q01DX009 (ip), vehicle: saline
[21] = dose: 60.0 mg/kg/injection, schedule: Q01DX005 (ip), vehicle: saline with Tween-80
[22] = dose: 120.0 mg/kg/injection, schedule: Q01DX005 (ip), vehicle: saline with Tween-80
[23] = dose: 240.0 mg/kg/injection, schedule: Q01DX005 (ip), vehicle: saline with Tween-80

Measured: T/C

Cc1ccc(N/N=C/C(=O)O)cc1
inactive: dose: 12.5 mg/kg/injection, schedule: Q01DX009 (ip), vehicle: other 113 % of control | [1] 103 % of control | [2] 112 % of control | [3] 98 % of control | [4] 116 % of control | [5] 116 % of control

O=C1CSc2c(ccc3c4c([nH]c23)C(=O)CCC4)N1
inactive: dose: 100.0 mg/kg/injection, schedule: Q01DX001 (ip), vehicle: Klucel (hydroxypropylcellulose) (HPC) 99 % of control | dose: 200.0 mg/kg/injection, schedule: Q01DX001 (ip), vehicle: Klucel (hydroxypropylcellulose) (HPC) 90 % of control | dose: 400.0 mg/kg/injection, schedule: Q01DX001 (ip), vehicle: Klucel (hydroxypropylcellulose) (HPC) 97 % of control

O=C(O)CC(CC(=O)O)CN(CC(=O)O)Cc1ccccc1
inactive: dose: 20.0 mg/kg/injection, schedule: Q01DX005 (ip), vehicle: Klucel (hydroxypropylcellulose) (HPC) 102 % of control | dose: 40.0 mg/kg/injection, schedule: Q01DX005 (ip), vehicle: Klucel (hydroxypropylcellulose) (HPC) 90 % of control | dose: 80.0 mg/kg/injection, schedule: Q01DX005 (ip), vehicle: Klucel (hydroxypropylcellulose) (HPC) 91 % of control

CC1(C)C(=O)C2=C(OC3([Se]2)C(=O)C(C)(C)C(=O)C(C)(C)C3=O)C(C)(C)C1=O
inactive: dose: 7.5 mg/kg/injection, schedule: Q01DX005 (ip), vehicle: Klucel (hydroxypropylcellulose) (HPC) 100 % of control | dose: 15.0 mg/kg/injection, schedule: Q01DX005 (ip), vehicle: Klucel (hydroxypropylcellulose) (HPC) 107 % of control | dose: 30.0 mg/kg/injection, schedule: Q01DX005 (ip), vehicle: Klucel (hydroxypropylcellulose) (HPC) 107 % of control | dose: 60.0 mg/kg/injection, schedule: Q01DX005 (ip), vehicle: Klucel (hydroxypropylcellulose) (HPC) 99 % of control | dose: 120.0 mg/kg/injection, schedule: Q01DX005 (ip), vehicle: Klucel (hydroxypropylcellulose) (HPC) 102 % of control

CCCCCCCCCCCCCCN1CCOCC1
inactive: [6] 94 % of control | [7] 100 % of control | [8] 100 % of control and 98 % of control

N#Cc1ccccc1N1CCCC1=O
inactive: dose: 100.0 mg/kg/injection, schedule: Q04DX002 (ip), vehicle: saline 90 % of control | dose: 200.0 mg/kg/injection, schedule: Q04DX002 (ip), vehicle: saline 102 % of control | dose: 400.0 mg/kg/injection, schedule: Q04DX002 (ip), vehicle: saline 97 % of control

CCO[Si](CCSC(=O)N(CCCl)CCCl)(OCC)OCC
inactive: [9] 99 % of control | [10] 98 % of control | dose: 400.0 mg/kg/injection, schedule: Q04DX002 (ip), vehicle: saline with Tween-80 107 % of control

FC(F)(F)c1ccccc1NC(=S)SCc1ccc(Cl)cc1
inactive: dose: 50.0 mg/kg/injection, schedule: Q01DX009 (ip), vehicle: suspension in saline 104 % of control | [11] 101 % of control | dose: 200.0 mg/kg/injection, schedule: Q01DX009 (ip), vehicle: suspension in saline 108 % of control

OCC(O)COCCCCCCCCCCCC1C=CCC1 (stereo not drawn)
inactive: [12] 99 % of control | [13] 99 % of control | dose: 400.0 mg/kg/injection, schedule: Q04DX003 (ip), vehicle: saline 99 % of control

COn1cc(C(=O)O)c(=O)c2c3sc(=O)n(C)c3ccc21
inactive: [14] 101 % of control | [15] 94 % of control | [16] 99 % of control

CCOC(=O)C1=C(C)NC(C)=C(C(=O)OCC)C1c1ccc(OC)c(OC)c1
inactive: [1] 106 % of control | [2] 103 % of control | [3] 97 % of control | [4] 97 % of control | [5] 88 % of control

OCC1(C(O)(C2CC2)C2(CO)CC2)CC1
inactive: dose: 50.0 mg/kg/injection, schedule: Q01DX005 (ip), vehicle: saline with Tween-80 105 % of control | dose: 100.0 mg/kg/injection, schedule: Q01DX005 (ip), vehicle: saline with Tween-80 105 % of control | dose: 200.0 mg/kg/injection, schedule: Q01DX005 (ip), vehicle: saline with Tween-80 100 % of control

Nc1nc2c(c(-c3nc(N)nc4c3CCC4)n1)CCC2
inactive: dose: 60.0 mg/kg/injection, schedule: Q01DX005 (ip), vehicle: saline 98 % of control | dose: 120.0 mg/kg/injection, schedule: Q01DX005 (ip), vehicle: saline 106 % of control | dose: 240.0 mg/kg/injection, schedule: Q01DX005 (ip), vehicle: saline 97 % of control

Cc1cccc([B-]23OCC[N+]2(CNC(=O)c2ccccc2O)CCO3)c1 (stereo not drawn)
inactive: [17] 105 % of control | [18] 104 % of control | [19] 104 % of control

O=c1cc(-c2ccccc2)c2ccc(O)c(CN(CCO)CCO)c2o1
inactive: [9] 89 % of control | [10] 89 % of control

COc1cc2c(cc1OC)C(CN)C2 (stereo not drawn)
inactive: [7] 111 % of control | [8] 109 % of control | [20] 119 % of control

NC(=O)c1cnc(N)nc1
inactive: dose: 6.25 mg/kg/injection, schedule: Q01DX009 (ip), vehicle: saline with Tween-80 93 % of control | dose: 12.5 mg/kg/injection, schedule: Q01DX009 (ip), vehicle: saline with Tween-80 91 % of control | dose: 25.0 mg/kg/injection, schedule: Q01DX009 (ip), vehicle: saline with Tween-80 98 % of control | [14] 94 % of control | [15] 98 % of control | [16] 106 % of control

Cc1ccc(Nc2nnc(-c3ccc4c(c3)OCO4)o2)c(C)c1
inactive: [17] 97 % of control | [18] 97 % of control | [19] 100 % of control

CC1=CC(=C2C(=O)c3ccccc3C2=O)C=C(C)N1CC#CCN1CCCCC1
inactive: [17] 108 % of control | [18] 98 % of control | [19] 88 % of control | dose: 240.0 mg/kg/injection, schedule: Q01DX005 (ip), vehicle: Klucel (hydroxypropylcellulose) (HPC) 90 % of control

C1OC2CC1CO2
inactive: [14] 100 % of control | [15] 103 % of control | [16] 103 % of control

CC(C)CC(Nc1nncs1)Nc1nncs1
inactive: [21] 96 % of control | [22] 90 % of control | [23] 100 % of control

Cc1ccc(NC(=O)N2CCCCC2)cc1[N+](=O)[O-]
inactive: [17] 99 % of control | [18] 98 % of control | [19] 96 % of control

CC(C)(C)SC(=O)C1CCCCC1
inactive: [14] 103 % of control | [15] 104 % of control

CCOC(=O)C1=C(C(=O)c2ccc(OC)cc2)C(c2c(Cl)cccc2Cl)C(C(=O)c2ccc(OC)cc2)=C(C(=O)OCC)N1
inactive: dose: 30.0 mg/kg/injection, schedule: Q01DX005 (ip), vehicle: saline with Tween-80 86 % of control | [21] 102 % of control and 93 % of control | [22] 94 % of control | [23] 93 % of control

CCN(CC)CCCC(C)NCCCN (stereo not drawn)
inactive: [12] 100 % of control | [13] 90 % of control

CC(C)c1ccc(OC(=O)Nc2c(Cl)cccc2Cl)cc1
inactive: [21] 108 % of control | [22] 120 % of control | [23] 115 % of control

COC(=O)c1c(SC)c2sc3ccccc3c2oc1=O
inactive: dose: 6.25 mg/kg/injection, schedule: Q04DX002 (ip), vehicle: saline with Tween-80 100 % of control | dose: 12.5 mg/kg/injection, schedule: Q04DX002 (ip), vehicle: saline with Tween-80 106 % of control | dose: 25.0 mg/kg/injection, schedule: Q04DX002 (ip), vehicle: saline with Tween-80 99 % of control

C1CNCCN1
inactive: [6] 113 % of control and 96 % of control | dose: 12.5 mg/kg/injection, schedule: Q01DX009 (ip), vehicle: suspension in saline 93 % of control | [7] 114 % of control and 96 % of control | [8] 94 % of control and 97 % of control | [20] 89 % of control | [11] 97 % of control | dose: 150.0 mg/kg/injection, schedule: Q01DX009 (ip), vehicle: saline 100 % of control and 114 % of control | dose: 150.0 mg/kg/injection, schedule: Q01DX009 (ip), vehicle: suspension in saline 93 % of control
